Test results taken from ChEMBL document CHEMBL1146001, “Thiothalidomides: novel isosteric analogues of thalidomide with enhanced TNF-alpha inhibitory activity” (J Med Chem, 2003).

Columns and labels:
[1] = system: TNF-alpha (Homo sapiens); test: Compound was tested for the inhibition of LPS-induced TNF-alpha production in human peripheral blood mononuclear cells (PBMC) at 30 uM
[2] = system: TNF-alpha (Homo sapiens); test: Compound was tested for the inhibition of LPS-induced TNF-alpha production in human peripheral blood mononuclear cells (PBMC)

Row | Structure (SMILES) | IC50 [2] [µM] | inhibition at 30 µM [1] [%]
1 | O=C1NC(=S)c2ccccc21 | > 30 | 34
2 | S=C1c2ccccc2C(=S)N1C1C=CCCC1 (stereo not drawn) | 15 | 86
3 | O=C1NC(=S)CCC1N1C(=O)c2ccccc2C1=O (stereo not drawn) | > 30 | 31
4 | O=C1c2ccccc2C(=S)N1C1C=CCCC1 (stereo not drawn) | 16 | 85
5 | O=C1c2ccccc2C(=O)N1C1CCC(=S)NC1=S (stereo not drawn) | 20 | 52
6 | O=C(O)CCC(C(=O)O)N1C(=O)c2ccccc2C1=S (stereo not drawn) | > 30 | 20
7 | COC(=O)CCC(C(=O)OC)N1C(=O)c2ccccc2C1=S (stereo not drawn) | 20 | 56
8 | O=C1CCCC(=S)N1 | > 30 | 15
9 | O=C1CCC(N2C(=O)c3ccccc3C2=S)C(=O)N1 (stereo not drawn) | > 30 | 23

These reach a lower IC50 [2]. Values come first.

Row | IC50 [2] [µM] | Structure (SMILES) | inhibition at 30 µM [1] [%]
10 | 10 | COC(=O)CCC(C(=O)OC)N1C(=S)c2ccccc2C1=S (stereo not drawn) | 85
11 | 6 | O=C1c2ccccc2C(=S)N1C1CCC(=S)NC1=S (stereo not drawn) | 79
12 | 11 | O=C1NC(=S)CCC1N1C(=O)c2ccccc2C1=S (stereo not drawn) | 61
13 | 8 | S=C1CCCC(=S)N1 | 75
14 | 3 | S=C1NC(=S)c2ccccc21 | 95
